From PubChem BioAssay (NCI) come the findings set out here.

Molecules are shown by their SMILES.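 Protocol summary: plate cells (96-well), add compound at 5 concentrations, incubate 48 h, interpolate endpoints linearly. TGI denotes the concentration required for complete inhibition of growth.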

Test in all cases: growth of human tumour cells (NCI), 48 h
Test [1] relates to SR leukemia.
Test [2] relates to RPMI-8226 leukemia.
Test [3] relates to LOX IMVI melanoma.
The subject of test [4] is KM12 colon.
Test [5] concerns OVCAR-5 ovarian.
The subject of test [6] is NCI/ADR-RES ovarian.
In test [7] the test system is SF-268 CNS.
Test [8] deals with MALME-3M melanoma.
The test system of test [9] is HCC-2998 colon.
For test [10], the system named is NCI-H226 lung.
In test [11] the test system is K-562 leukemia.
Test [12] relates to NCI-H522 lung.
Test [13] relates to MDA-MB-435.

In the case of `CC(=O)N=C1N(/C=C2\C(=O)Oc3ccccc3C2=O)C(=O)/C(=C/c2cccc(Cl)c2Cl)N1C`, the TGI in test [1] was 54.6 µM; in test [2] it was 52.5 µM; in test [3], more than 100 µM; in test [4], more than 100 µM; in test [5], more than 100 µM; in test [6] it was 62 µM. The TGI in test [7] was more than 100 µM; in test [8], more than 100 µM; in test [9], 31.4 µM; in [10] it was 94.2 µM; in [11] it was 63.3 µM; in test [12], more than 100 µM. This compound registered a TGI in test [13] of more than 100 µM.
Turning to `CC1=NN(c2nc(N)nc(/C(C#N)=C\c3ccc([N+](=O)[O-])s3)n2)C(C)(C)C1`, the TGI in [1] turned out to be 0.152 µM; in test [2], 0.0872 µM; in [3] it was 0.3 µM; in test [4], 1.85 µM; in [5] it was 21.5 µM; in test [6], 12.8 µM. Also, the TGI in test [7] was more than 100 µM; in test [8] it was 3.87 µM; in test [9] it was 4.4 µM; in test [10], 8.18 µM; in test [11], 0.355 µM; in test [12] it was 0.354 µM. Moreover, the TGI in [13] came out at 0.405 µM.
For the compound `COc1cc(OC)c2nc(C)c(CCCl)c(Cl)c2c1`, the TGI in [1], in [2], in [3], in test [4], in [5] and in [6] was more than 100 µM throughout. In addition, the TGI in [7], in [8], in test [9], in test [10], in test [11] and in test [12] was more than 100 µM throughout. Further, the TGI in test [13] is more than 100 µM.
In the case of `CC(=O)N(C(C)=O)c1ncc(-n2nc(-c3ccccc3)cc2-c2ccccc2)c(-c2ccccc2)n1`, the TGI in test [1], in test [2], in [3], in test [4], in test [5] and in test [6] was more than 10 µM in each case. The TGI in test [7], in test [8], in test [9], in [10], in [11] and in test [12] was more than 10 µM each time. The TGI in [13] was more than 10 µM.
Consider `N#CC1C(=S)NC(c2ccccc2)=CC12CCCCC2` (stereo not given), for which the TGI was 50.2 µM in test [1]; 54.3 µM in test [2]; 40.7 µM in test [3]; 60.2 µM in test [4]; more than 100 µM in [5]; more than 100 µM in [6]. Further, the TGI is more than 100 µM in test [7]; 43.2 µM in test [8]; more than 100 µM in test [9]; 77.4 µM in [10]; more than 100 µM in test [11]; 42.2 µM in test [12]. For the same compound, in test [13], the TGI stood at 40.3 µM.
